Assay results: ChEMBL document CHEMBL3351764, “Design, synthesis and biological activity of flavonoid derivatives as selective agonists for neuromedin U 2 receptor” (Bioorg Med Chem, 2014)
Activity calls are given as the source filed them. The rule behind the calls is not given here.

Experiments:
[1] = target: Melanocyte-stimulating hormone receptor (Homo sapiens) (UniProt Q01726); assay: Agonist activity at human MC1 receptor at 100 uM to 5 mM
[2] = target: Adrenocorticotropic hormone receptor (Homo sapiens) (UniProt Q01718); assay: Agonist activity at human MC2 receptor at 100 uM to 5 mM
Chain of Adrenocorticotropic hormone receptor (Homo sapiens) (Q01718 whole entry): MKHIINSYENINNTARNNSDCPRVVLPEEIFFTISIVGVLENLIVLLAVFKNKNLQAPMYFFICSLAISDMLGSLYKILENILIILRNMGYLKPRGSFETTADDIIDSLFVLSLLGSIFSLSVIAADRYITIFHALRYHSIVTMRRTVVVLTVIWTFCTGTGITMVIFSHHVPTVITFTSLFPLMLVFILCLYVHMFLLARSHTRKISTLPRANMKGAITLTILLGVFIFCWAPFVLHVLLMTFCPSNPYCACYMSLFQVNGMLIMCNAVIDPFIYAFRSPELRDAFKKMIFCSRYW

[3] = target: Melanocortin receptor 3 (Homo sapiens) (UniProt P41968); assay: Agonist activity at human MC3 receptor at 100 uM to 5 mM
Chain of Melanocortin receptor 3 (Homo sapiens) (P41968 whole entry): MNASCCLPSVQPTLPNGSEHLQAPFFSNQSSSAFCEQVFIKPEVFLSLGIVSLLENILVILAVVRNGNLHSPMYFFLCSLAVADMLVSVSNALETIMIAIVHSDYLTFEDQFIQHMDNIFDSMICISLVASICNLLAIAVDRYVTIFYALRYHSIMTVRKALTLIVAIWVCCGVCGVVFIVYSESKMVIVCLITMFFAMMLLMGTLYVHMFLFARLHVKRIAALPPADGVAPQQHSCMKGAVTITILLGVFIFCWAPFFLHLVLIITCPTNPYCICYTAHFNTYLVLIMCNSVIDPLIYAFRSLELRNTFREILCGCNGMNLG

[4] = target: Adrenocorticotropic hormone receptor (Mus musculus) (UniProt Q64326); assay: Agonist activity at mouse MC2 receptor at 100 uM to 5 mM
Chain of Adrenocorticotropic hormone receptor (Mus musculus) (Q64326 whole entry): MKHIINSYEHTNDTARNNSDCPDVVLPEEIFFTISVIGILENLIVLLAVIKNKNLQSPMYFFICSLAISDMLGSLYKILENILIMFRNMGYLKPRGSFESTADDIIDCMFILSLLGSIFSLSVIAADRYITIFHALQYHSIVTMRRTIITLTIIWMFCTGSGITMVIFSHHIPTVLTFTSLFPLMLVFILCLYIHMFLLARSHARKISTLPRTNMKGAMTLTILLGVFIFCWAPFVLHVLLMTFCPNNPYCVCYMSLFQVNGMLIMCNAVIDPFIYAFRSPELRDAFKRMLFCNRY

[5] = target: Melanocortin receptor 4 (Mus musculus) (UniProt P56450); assay: Agonist activity at mouse MC4 receptor at 100 uM to 5 mM
Chain of Melanocortin receptor 4 (Mus musculus) (P56450 whole entry): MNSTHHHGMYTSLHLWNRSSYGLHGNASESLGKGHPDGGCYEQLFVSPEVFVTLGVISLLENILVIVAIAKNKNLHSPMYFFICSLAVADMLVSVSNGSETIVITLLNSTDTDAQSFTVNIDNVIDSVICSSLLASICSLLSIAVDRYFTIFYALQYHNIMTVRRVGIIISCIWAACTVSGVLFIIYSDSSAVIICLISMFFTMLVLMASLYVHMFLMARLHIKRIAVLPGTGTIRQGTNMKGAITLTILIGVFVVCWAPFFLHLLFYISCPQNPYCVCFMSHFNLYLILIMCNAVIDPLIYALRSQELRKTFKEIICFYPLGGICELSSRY

[6] = target: Melanocortin receptor 5 (Mus musculus) (UniProt P41149); assay: Agonist activity at mouse MC5 receptor at 100 uM to 5 mM
Chain of Melanocortin receptor 5 (Mus musculus) (P41149 whole entry): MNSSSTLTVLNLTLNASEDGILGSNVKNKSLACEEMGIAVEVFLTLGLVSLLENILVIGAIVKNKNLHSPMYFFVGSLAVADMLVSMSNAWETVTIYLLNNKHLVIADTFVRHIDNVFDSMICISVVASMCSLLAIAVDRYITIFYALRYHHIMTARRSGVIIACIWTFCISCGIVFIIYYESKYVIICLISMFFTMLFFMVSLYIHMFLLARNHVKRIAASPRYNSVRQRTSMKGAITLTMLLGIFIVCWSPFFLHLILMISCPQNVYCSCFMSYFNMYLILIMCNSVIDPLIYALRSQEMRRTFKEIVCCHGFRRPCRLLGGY

[7] = target: T1, 5-hydroxytryptamine receptor 2C (Homo sapiens) (UniProt P28335); assay: Agonist activity at human 5HT2C receptor at 100 uM to 5 mM
T1 sequence (whole entry): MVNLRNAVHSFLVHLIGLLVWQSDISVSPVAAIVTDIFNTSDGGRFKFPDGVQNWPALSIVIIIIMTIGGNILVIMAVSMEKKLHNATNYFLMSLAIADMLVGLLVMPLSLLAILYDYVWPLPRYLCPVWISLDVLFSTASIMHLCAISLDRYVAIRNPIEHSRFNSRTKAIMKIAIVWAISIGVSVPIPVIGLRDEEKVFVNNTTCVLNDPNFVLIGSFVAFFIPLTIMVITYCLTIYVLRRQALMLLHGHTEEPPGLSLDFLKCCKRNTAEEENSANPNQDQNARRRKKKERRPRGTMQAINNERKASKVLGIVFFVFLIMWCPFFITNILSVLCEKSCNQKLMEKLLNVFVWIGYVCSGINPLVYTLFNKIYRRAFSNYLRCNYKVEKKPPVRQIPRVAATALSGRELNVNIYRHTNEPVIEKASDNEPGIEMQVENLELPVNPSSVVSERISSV

[8] = target: T2, Muscarinic acetylcholine receptor M1 (Homo sapiens) (UniProt P11229); assay: Agonist activity at human M1 receptor at 100 uM to 5 mM
T2 sequence (whole entry): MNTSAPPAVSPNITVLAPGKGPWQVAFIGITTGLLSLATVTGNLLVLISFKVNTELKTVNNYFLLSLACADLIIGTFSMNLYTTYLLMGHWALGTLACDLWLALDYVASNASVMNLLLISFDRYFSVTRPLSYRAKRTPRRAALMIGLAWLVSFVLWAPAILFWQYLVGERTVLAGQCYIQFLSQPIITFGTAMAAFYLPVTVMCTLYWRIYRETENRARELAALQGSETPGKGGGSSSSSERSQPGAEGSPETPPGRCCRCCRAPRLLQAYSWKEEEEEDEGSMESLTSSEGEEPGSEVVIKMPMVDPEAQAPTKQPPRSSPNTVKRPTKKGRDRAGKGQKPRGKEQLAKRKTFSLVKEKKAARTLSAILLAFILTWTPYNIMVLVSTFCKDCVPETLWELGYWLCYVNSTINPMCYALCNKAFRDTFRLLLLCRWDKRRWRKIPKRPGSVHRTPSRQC

[9] = target: D(1A) dopamine receptor (Homo sapiens) (UniProt P21728); assay: Agonist activity at human D1 receptor at 100 uM to 5 mM
Chain of D(1A) dopamine receptor (Homo sapiens) (P21728 whole entry): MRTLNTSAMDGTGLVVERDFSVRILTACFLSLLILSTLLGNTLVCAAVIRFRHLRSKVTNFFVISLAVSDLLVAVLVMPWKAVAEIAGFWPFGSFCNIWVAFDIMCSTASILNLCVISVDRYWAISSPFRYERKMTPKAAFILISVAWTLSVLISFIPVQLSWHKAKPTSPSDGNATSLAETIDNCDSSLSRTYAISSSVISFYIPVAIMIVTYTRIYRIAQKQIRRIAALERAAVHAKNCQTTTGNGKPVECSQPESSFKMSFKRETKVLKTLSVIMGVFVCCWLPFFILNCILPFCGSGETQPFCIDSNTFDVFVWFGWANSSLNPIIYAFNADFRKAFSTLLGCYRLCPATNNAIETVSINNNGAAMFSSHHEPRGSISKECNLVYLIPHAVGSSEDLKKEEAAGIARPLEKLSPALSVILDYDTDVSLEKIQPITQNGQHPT

[10] = target: D(1B) dopamine receptor (Homo sapiens) (UniProt P21918); assay: Agonist activity at human D5 receptor at 100 uM to 5 mM
Chain of D(1B) dopamine receptor (Homo sapiens) (P21918 whole entry): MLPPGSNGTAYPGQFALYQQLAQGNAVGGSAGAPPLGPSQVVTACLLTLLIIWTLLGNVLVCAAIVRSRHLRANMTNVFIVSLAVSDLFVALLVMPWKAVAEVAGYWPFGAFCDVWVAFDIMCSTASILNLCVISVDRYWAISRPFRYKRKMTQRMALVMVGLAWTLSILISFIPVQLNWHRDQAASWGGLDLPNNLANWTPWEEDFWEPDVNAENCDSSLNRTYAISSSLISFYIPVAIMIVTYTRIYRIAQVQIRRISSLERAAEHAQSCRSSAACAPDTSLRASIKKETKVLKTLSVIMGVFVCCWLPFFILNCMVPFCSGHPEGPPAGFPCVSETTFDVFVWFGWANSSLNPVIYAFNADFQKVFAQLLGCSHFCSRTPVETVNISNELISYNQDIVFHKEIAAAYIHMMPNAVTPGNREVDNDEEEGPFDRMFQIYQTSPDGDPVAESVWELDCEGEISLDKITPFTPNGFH

[11] = target: Adenosine receptor A2a (Homo sapiens) (UniProt P29274); assay: Agonist activity at human A2a receptor at 100 uM to 5 mM
Chain of Adenosine receptor A2a (Homo sapiens) (P29274 whole entry): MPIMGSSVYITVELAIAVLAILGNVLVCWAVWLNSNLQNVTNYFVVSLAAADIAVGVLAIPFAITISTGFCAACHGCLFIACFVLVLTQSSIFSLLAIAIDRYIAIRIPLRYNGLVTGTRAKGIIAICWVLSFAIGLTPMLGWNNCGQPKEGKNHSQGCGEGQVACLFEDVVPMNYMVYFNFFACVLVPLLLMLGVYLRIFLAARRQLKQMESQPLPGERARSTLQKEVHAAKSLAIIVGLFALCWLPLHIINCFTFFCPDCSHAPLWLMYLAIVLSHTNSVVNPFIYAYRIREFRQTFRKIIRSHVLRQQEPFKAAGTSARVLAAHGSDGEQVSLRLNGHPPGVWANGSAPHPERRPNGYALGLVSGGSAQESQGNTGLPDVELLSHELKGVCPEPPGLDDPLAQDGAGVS

[12] = target: T3, Parathyroid hormone/parathyroid hormone-related peptide receptor (Homo sapiens) (UniProt Q03431); assay: Agonist activity at human PTH receptor at 100 uM to 5 mM
T3 sequence (whole entry): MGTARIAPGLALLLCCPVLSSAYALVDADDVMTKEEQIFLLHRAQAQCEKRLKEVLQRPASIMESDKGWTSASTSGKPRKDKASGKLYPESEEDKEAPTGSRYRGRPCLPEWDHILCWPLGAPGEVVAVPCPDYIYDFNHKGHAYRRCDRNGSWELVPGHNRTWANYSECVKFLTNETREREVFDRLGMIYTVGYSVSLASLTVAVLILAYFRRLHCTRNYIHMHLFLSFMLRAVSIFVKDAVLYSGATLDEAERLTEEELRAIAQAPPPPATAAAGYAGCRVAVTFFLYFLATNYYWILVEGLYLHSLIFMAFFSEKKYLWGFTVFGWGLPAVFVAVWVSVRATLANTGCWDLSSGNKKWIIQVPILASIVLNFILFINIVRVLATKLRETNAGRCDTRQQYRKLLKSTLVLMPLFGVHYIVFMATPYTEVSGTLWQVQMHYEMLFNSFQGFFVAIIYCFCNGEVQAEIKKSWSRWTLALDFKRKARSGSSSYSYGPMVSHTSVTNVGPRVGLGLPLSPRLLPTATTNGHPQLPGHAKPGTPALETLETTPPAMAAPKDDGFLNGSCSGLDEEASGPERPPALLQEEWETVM

[13] = target: T4, Neuropeptide Y receptor type 5 (Homo sapiens) (UniProt Q15761); assay: Agonist activity at human NPY5 receptor at 100 uM to 5 mM
T4 sequence (whole entry): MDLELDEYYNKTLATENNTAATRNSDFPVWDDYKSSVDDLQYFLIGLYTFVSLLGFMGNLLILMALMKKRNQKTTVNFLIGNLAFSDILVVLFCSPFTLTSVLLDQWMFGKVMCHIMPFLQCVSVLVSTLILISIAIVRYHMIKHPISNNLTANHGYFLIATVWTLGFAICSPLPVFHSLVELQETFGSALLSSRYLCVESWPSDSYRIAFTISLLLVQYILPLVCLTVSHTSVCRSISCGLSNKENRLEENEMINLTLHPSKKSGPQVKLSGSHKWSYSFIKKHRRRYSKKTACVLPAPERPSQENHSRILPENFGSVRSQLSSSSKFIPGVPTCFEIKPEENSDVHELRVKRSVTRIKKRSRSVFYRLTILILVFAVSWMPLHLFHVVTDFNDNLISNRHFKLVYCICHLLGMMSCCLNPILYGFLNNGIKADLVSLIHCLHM

Chain of Melanocyte-stimulating hormone receptor (Homo sapiens) (Q01726 whole entry, looked up): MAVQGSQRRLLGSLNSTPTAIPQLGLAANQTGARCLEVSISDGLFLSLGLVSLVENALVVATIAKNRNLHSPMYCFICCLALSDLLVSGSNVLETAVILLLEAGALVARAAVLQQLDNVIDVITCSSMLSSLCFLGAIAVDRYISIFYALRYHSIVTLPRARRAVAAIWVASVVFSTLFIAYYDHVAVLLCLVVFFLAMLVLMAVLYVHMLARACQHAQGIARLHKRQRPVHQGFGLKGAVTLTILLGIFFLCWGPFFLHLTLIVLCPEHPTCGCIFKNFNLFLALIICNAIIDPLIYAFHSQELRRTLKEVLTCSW

| Structure (SMILES) | Activity [1] | Activity [2] | Activity [3] | Activity [4] | Activity [5] | Activity [6] | Activity [7] | Activity [8] | Activity [9] | Activity [10] | Activity [11] | Activity [12] | Activity [13] |
| --- | --- | --- | --- | --- | --- | --- | --- | --- | --- | --- | --- | --- | --- |
| Clc1ccc(C2C=Cc3ccccc3O2)c(Cl)c1 (racemic) | inactive | inactive | inactive | inactive | inactive | inactive | inactive | inactive | inactive | inactive | inactive | inactive | inactive |
| COc1ccc(F)c(-c2oc3ccccc3c(=O)c2O)c1 | inactive | inactive | inactive | inactive | inactive | inactive | inactive | inactive | inactive | inactive | inactive | inactive | inactive |
| COc1cc(-c2cc(=O)c3ccccc3o2)ccc1O | inactive | inactive | inactive | inactive | inactive | inactive | inactive | inactive | inactive | inactive | inactive | inactive | inactive |
| COc1ccc(-c2cc(=O)c3ccccc3o2)cc1O | inactive | inactive | inactive | inactive | inactive | inactive | inactive | inactive | inactive | inactive | inactive | inactive | inactive |
| COc1cccc(-c2oc3ccccc3c(=O)c2O)c1 | inactive | inactive | inactive | inactive | inactive | inactive | inactive | inactive | inactive | inactive | inactive | inactive | inactive |
| O=c1c(O)c(-c2cc(Br)ccc2F)oc2ccccc12 | inactive | inactive | inactive | inactive | inactive | inactive | inactive | inactive | inactive | inactive | inactive | inactive | inactive |

Second part, the compound after the results:

| Activity [1] | Activity [2] | Activity [3] | Activity [4] | Activity [5] | Activity [6] | Activity [7] | Activity [8] | Activity [9] | Activity [10] | Activity [11] | Activity [12] | Activity [13] | Structure (SMILES) |
| --- | --- | --- | --- | --- | --- | --- | --- | --- | --- | --- | --- | --- | --- |
| inactive | inactive | inactive | inactive | inactive | inactive | inactive | inactive | inactive | inactive | inactive | inactive | inactive | O=c1c(O)c(-c2ccc(O)cc2)oc2ccccc12 |
| inactive | inactive | inactive | inactive | inactive | inactive | inactive | inactive | inactive | inactive | inactive | inactive | inactive | O=c1c(O)c(-c2c(F)ccc(F)c2Cl)oc2ccccc12 |
| inactive | inactive | inactive | inactive | inactive | inactive | inactive | inactive | inactive | inactive | inactive | inactive | inactive | O=c1c(O)c(-c2c(F)cccc2Cl)oc2ccccc12 |
| inactive | inactive | inactive | inactive | inactive | inactive | inactive | inactive | inactive | inactive | inactive | inactive | inactive | CN(C)c1ccc(-c2oc3ccccc3c(=O)c2O)cc1 |
| inactive | inactive | inactive | inactive | inactive | inactive | inactive | inactive | inactive | inactive | inactive | inactive | inactive | O=c1cc(-c2ccccc2F)oc2ccccc12 |
| inactive | inactive | inactive | inactive | inactive | inactive | inactive | inactive | inactive | inactive | inactive | inactive | inactive | O=c1c(O)c(-c2ccc(Br)cc2F)oc2ccccc12 |
